# Source: patent US8183415B2, “Methods of synthesizing cinacalcet and salts thereof” (Amgen, Inc., priority 2007, dated 2012)
# Where a name gives a salt, the structure may show the parent alone.
# How the values were obtained:
# calcium-sensing receptor [1] = molecular target: T1, calcium-sensing receptor (Homo sapiens, UniProt P41180); conditions: patients with chronic kidney disease on dialysis with secondary hyperparathyroidism; cited from earlier work
# T1 construct: a calcium-sensing receptor on the cell surface of the parathyroid gland; from tissue; host or cells: parathyroid gland of patients (in vivo, clinical use)
# T1 sequence (P41180 20-1078): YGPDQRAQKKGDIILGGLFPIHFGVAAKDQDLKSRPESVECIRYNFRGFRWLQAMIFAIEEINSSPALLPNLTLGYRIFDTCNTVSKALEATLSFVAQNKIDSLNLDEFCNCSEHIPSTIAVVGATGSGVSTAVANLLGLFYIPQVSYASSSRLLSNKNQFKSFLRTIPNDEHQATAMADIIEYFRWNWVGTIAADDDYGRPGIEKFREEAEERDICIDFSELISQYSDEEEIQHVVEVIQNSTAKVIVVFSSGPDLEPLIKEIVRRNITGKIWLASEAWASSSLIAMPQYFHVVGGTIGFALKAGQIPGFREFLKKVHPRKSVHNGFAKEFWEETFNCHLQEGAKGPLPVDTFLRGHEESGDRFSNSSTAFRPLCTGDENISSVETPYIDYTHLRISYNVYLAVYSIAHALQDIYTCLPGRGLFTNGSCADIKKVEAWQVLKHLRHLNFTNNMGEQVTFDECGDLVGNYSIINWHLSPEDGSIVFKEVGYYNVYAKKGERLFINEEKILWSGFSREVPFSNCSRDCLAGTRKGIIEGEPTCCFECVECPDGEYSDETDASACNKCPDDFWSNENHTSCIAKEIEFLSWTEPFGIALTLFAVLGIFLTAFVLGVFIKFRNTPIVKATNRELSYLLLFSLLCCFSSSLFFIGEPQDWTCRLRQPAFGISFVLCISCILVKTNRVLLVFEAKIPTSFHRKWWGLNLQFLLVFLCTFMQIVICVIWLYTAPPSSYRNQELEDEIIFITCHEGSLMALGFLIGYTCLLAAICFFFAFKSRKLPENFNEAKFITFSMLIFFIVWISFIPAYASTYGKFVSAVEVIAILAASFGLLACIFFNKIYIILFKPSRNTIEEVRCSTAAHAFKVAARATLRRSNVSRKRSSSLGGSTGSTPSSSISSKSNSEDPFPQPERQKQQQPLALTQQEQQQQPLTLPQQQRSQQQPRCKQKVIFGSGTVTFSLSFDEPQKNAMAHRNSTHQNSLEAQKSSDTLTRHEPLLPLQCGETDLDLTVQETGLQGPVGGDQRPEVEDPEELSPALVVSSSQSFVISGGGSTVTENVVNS
# calcium-sensing receptor [2] = molecular target: T1, calcium-sensing receptor; conditions: patients with parathyroid carcinoma; cited from earlier work
structure (smiles),measurement,setting,value
C[C@@H](NCCCc1cccc(C(F)(F)F)c1)c1cccc2ccccc12.Cl [Form III],thermodynamic stability of crystalline form,"variety of solvent systems and crystallization methods, XRPD",metastable form
C[C@@H](NCCCc1cccc(C(F)(F)F)c1)c1cccc2ccccc12.Cl [Form II],stability of crystalline form,at room temperature,unstable
"C[C@@H](NCCCc1cccc(C(F)(F)F)c1)c1cccc2ccccc12 [Sensipar, N-[1-(R)-(−)-(1-naphthyl)ethyl]-3-[3-(trifluoromethyl)phenyl]-1-aminopropane hydrochloride]",therapeutic efficacy,calcium-sensing receptor [1],therapeutically effective
same,effect on calcium levels,calcium-sensing receptor [2],reduce high levels of calcium
